Patent US20070197432A1, “Peptides for preventing, diagnosing and treating animal and/or human leptospirosis” (priority 2002, published 2007)
No end group written: not given here.

Columns and labels:
[1] = test system: Leptospira interrogans sl serovar canicola; test: Dogs immunized with PP-KLH, canicola challenge: clinical, hematological and biochemical parameters; format: in vivo, dog; conditions: at D4
[2] = Dogs immunized with PP-KLH, immunization phase (tolerance, weight); format: in vivo, dog
Protocol: (§1) An immunization/challenge protocol was carried out in order to evaluate the protection that can be provided by the PP peptide (SEQ ID No. 1) NH2-coupled to the KLH carrier protein (FIG. 14).
(§2) This construct is administered subcutaneously without adjuvant, with PBS as a negative control (batch 2).
(§3) Batch 1: 6 SPF dogs, 2 injections of 250 μg of PP-KLH in 1 ml subcutaneously.
(§4) Batch 2: 6 SPF dogs, control.
(§5) The two injections were administered subcutaneously, […].
The immunization phase was carried out from D-39 to D-1, (D0 being the day of challenge), with the first injection on D-35 and second on D-18.
During this phase, the weight was measured on D-39, D-35, D-28, and D-7 (FIG. 15).

PP peptide = test: Trial 1: anti-PP IgG ELISA of gerbils immunized with PP-KLH; format: in vivo, gerbil; conditions: three dilutions observed
Protocol: An immunization/challenge protocol was carried out in order to evaluate the protection that can be provided by the PP peptide (SEQ ID No. 1) coupled to the KLH protein.
as §2
Batch 1: 10 gerbils, 2 injections of 30 μg of PP-KLH in 300 μl, subcutaneously.
The two injections in a volume of 300 μl were administered subcutaneously, two weeks apart. A challenge by intraperitoneal injection of 0.5 ml of a canicola culture with a titer of 90 to 100 TU (turbidimetry) diluted to 10^−2.5 was administered two weeks after the second injection. • Antigenic response: Monitoring by ELISA of the immune response of the gerbils against the PP peptide
The anti-PP antibodies were titered in the gerbil by means of an ELISA technique (described above) with a biotinylated anti-gerbil antiglobulin (BioAtlantic) at 1/3000 and, as visualizing agent, peroxidase-coupled streptavidin (RPN1231, Amersham pharmacia biotech).
For each batch of gerbils, the sera were combined with respect to the various sample dates D0 (before the first immunization), D14 (before the second immunization) and D28 (before the challenge).
The results of the IgG antibody response against the PP peptide, expressed as corrected OD (OD of the treated sera corrected with respect to the OD of the control sera), are given in FIG. 11.

[3] = test system: Leptospira interrogans sl serovar canicola; test: Dogs immunized with PP-KLH, canicola challenge: PCR on plasma, urine and kidney samples; format: in vivo, dog
Protocol: (§6) The animals are given a challenge at a rate of one virulent culture of 4 to 6 days. For an immunized batch and a control batch, each animal received, in each eye, 0.3 ml of the culture having a titer of 120 TU (i.e. 2×10^8 leptospires per ml) and, intraperitoneally, 4 ml of the same culture diluted ten-fold.
(§7) The presence of leptospires was studied jointly by PCR (PCR specific for pathogenic leptospires) and by culturing, in the urine at D0, D10, D14, D18, D25 and D41 and in the kidney samples from each animal at the end of the trial at […].
(§8) Moreover, the bacteriological results were quantified through the setting up of a coefficient: • by immediate culturing. A single live leptospire can give a positive culture. A relative estimation of the bacterial concentration is expressed by means of a coefficient of 3 when a culture has developed in the third serial dilution prepared from the sample. • by PCR on frozen samples. […] A coefficient of 1 was assigned to a PCR with a weak signal and a coefficient of 2 to a strongly positive PCR.

[4] = test system: Leptospira interrogans sl serovar canicola; test: Dogs immunized with PP-KLH, canicola challenge: clinical, hematological and biochemical parameters; format: in vivo, dog
Protocol: as §1, §2, §3, §4, §5
The challenge (CH) was carried out on D0.
as §6
The challenge phase was carried out from D-1 to […], with the challenge on D0.
During this phase, the temperature was measured on D0, D1, D2, D3, D4, D5, D6 and D7.
The hematological parameters were measured on D-1, D3, D7, D10, D14, D15 and D41.
The biochemical parameters were measured on D-1, D3, D7, D10, D14, D18, D25 and D41.

[5] = test system: Leptospira interrogans sl serovar canicola; test: Dogs immunized with PP-KLH, canicola challenge: cultures of plasma, urine and kidney samples; format: in vivo, dog
Protocol: as §6, §7, §8

[6] = test system: Leptospira interrogans sl serovar canicola; test: Trial 2: gerbils immunized with PP-KLH or PP, 10^−2 canicola challenge; format: in vivo, gerbil; design: Mortality rate / Survival rate: unit not given here
Protocol: An immunization/challenge trial was carried out in order to evaluate the protection that can be provided by the PP peptide (SEQ ID No. 1) coupled or not coupled to the KLH protein.
This construct is administered subcutaneously without adjuvant, and PBS is administered by the same route as the negative control (batch 3). • Batch 1: 12 gerbils, 2 injections of 30 μg of PP-KLH in 300 μl. • Batch 2: 12 gerbils, 2 injections of 30 μg of PP in 300 μl. • Batch 3: 15 gerbils, 2 injections of PBS in 300 A1.
The two injections in a volume of 300 μl were administered subcutaneously, two weeks apart. A challenge by intraperitoneal injection of 0.5 ml of a serovar canicola leptospiral culture with a titer of 90 to 100 TU (turbidimetry) diluted to 10^−2 was administered three weeks after the second injection.

[7] = Accumulation of the two trials, survival

With “PP-KLH: PP peptide with cysteine added at the N-terminal position, coupled via sulfo-MBS to KLH carrier protein (keyhole limpet hemocyanin) (KAKPVQKLDDDDDGDDTYKEERHNK; not fully specified (N-terminus))” the “p, monocyte depletion observed only in the controls” value [1] was 0.05, the “p, transient leukopenia greater in control than in immunized dogs” value [1] was < 0.05 and the lymphopenia ([1]; significant in the controls) was “not noted at all”. For the same substance, the “tolerance in immunization phase” value ([2]; SPF dogs, 2 s.c. injections of 250 μg without adjuvant) was “complete tolerance”, the “p, evolution of mean increase in weights, control versus immunized dogs (not significantly different)” value ([2]; between D-35 and D-7) was 0.8509 and the “boost effect of second injection: corrected OD at D28 relative to D14” value (PP peptide) was “more than double”. For the same substance, the “positive PCR/dogs” value ([3]; Kidneys, D41) was 1/6, the “positive PCR/dogs” value ([3]; Plasma, D0) was 0/6 and the “positive PCR/dogs” value ([3]; Plasma, D3) was 6/6. The “positive PCR/dogs” value ([3]; Plasma, D7) was 0/6, the “positive PCR/dogs” value ([3]; Urine, D14) was 2/6 and the “positive PCR/dogs” value ([3]; Urine, D18) was 1/6. The “positive PCR/dogs” value ([3]; Urine, D25) was 3/6, the “positive PCR/dogs” value ([3]; Urine, D41) was 4/6 and the thrombocytopenia ([4]; after challenge) was “significantly more pronounced in the controls than in the immunized dogs”. For the same substance, the “p, difference in temperature, control versus immunized dogs (controls more pronounced febrile peak)” value ([4]; at D3 and D4) was < 0.05, the “P, evolution of mean increase in temperature, control versus immunized dogs (not significantly different)” value ([4]; between D0 and D7) was 0.7944 and the “P, evolution of white blood cells, control versus immunized dogs (not significantly different)” value ([4]; between D-1 and D41) was 0.4407. For the same substance, the “p, evolution of mean variation in platelets, control versus immunized dogs (significantly different)” value ([4]; between D-1 and D41) was 0.0412, the “mortality following the challenge” value ([4]; dogs, immunized and control) was “No mortality” and the “protection against a canicola challenge in dogs” value ([4]; overall conclusion) was “makes it possible to induce protection”. The “p, tendency for higher urea level in the controls (no significant difference)” value ([4]; period of acute effect in the kidneys (D0-D10)) was < 0.15, the “p, urea level in the controls significantly higher” value ([4]; period of kidney colonization (D10-D41)) was < 0.02 and the positive cultures/dogs ([5]; Plasma, D0) was 0/6. For the same substance, the positive cultures/dogs ([5]; Plasma, D3) was 6/6, the positive cultures/dogs ([5]; Plasma, D7) was 0/6 and the positive cultures/dogs ([5]; Urine, D14) was 2/6. The positive cultures/dogs ([5]; Urine, D18) was 3/6, the positive cultures/dogs ([5]; Urine, D25) was 4/6 and the “renal carrier status at the time of euthanasia” value ([5]; detected both by culturing and by PCR, both groups) was “renal carriers”. For the same substance, the “excretion of leptospires in the urine” value ([5]; immunized versus control dogs, cultures and PCRs) was “becomes apparent later, or at a lower level”, the Mortality rate ([6]; 10^−2 canicola challenge) was 8.3 and the Survival rate ([6]; 10^−2 canicola challenge) was 91.6. The “mortality in the group (dead/number)” value ([6]; 10^−2 canicola challenge) was 1/12, the gerbils at challenge ([6]; 10^−2 canicola challenge, D0) was 12 and the “mortality of gerbils (dead/number)” value ([6]; 10^−2 canicola challenge, D4) was 0/12. The “mortality of gerbils (dead/number)” value ([6]; 10^−2 canicola challenge, D5) was 0/12, the “mortality of gerbils (dead/number)” value ([6]; 10^−2 canicola challenge, D6) was 0/12 and the “mortality of gerbils (dead/number)” value ([6]; 10^−2 canicola challenge, D7) was 0/12. For the same substance, the “mortality of gerbils (dead/number)” value ([6]; 10^−2 canicola challenge, D8) was 0/12, the “mortality of gerbils (dead/number)” value ([6]; 10^−2 canicola challenge, D9) was 1/12 and the “mortality of gerbils (dead/number)” value ([6]; 10^−2 canicola challenge, D10) was 0/11. For the same substance, the “mortality of gerbils (dead/number)” value ([6]; 10^−2 canicola challenge, D11) was 0/11, the “mortality of gerbils (dead/number)” value ([6]; 10^−2 canicola challenge, D12) was 0/11 and the “mortality of gerbils (dead/number)” value ([6]; 10^−2 canicola challenge, D13) was 0/11. The “mortality of gerbils (dead/number)” value ([6]; 10^−2 canicola challenge, D14) was 0/11, the “mortality of gerbils (dead/number)” value ([6]; 10^−2 canicola challenge, D15) was 0/11 and the “mortality of gerbils (dead/number)” value ([6]; 10^−2 canicola challenge, D16) was 0/11. For the same substance, the “mortality of gerbils (dead/number)” value ([6]; 10^−2 canicola challenge, D17) was 0/11, the “mortality of gerbils (dead/number)” value ([6]; 10^−2 canicola challenge, D28) was 0/11 and the “p, log-rank test versus control” value [6, 7] was <2.10^−3. The “χ^2, log-rank test versus control” value [6, 7] was 10.1, the “p, log-rank test versus control” value ([6]; Experiment 2, survival) was <1.10^−2 and the “χ^2, log-rank test versus control” value ([6]; Experiment 2, survival) was 6.84.
